The results in this text go back to patent publication US20240050399A1, “PHARMACEUTICAL COMPOSITIONS, COMPRISING A COMBINATION OF SELECT CARRIERS AND […] ANTIPATHOGENS” (EpitoGenesis, Inc., priority 2020, published 2024).

Values after ≈ are worked out from the molar mass of the structure shown.

The test system of the experiment is SARS-CoV-2 USA-WA1/2020. Nature of the experiment: Neutralization assay of SARS-CoV-2 with EGCG, quantified by Avicel plaque reduction assay on VeroE6 cells. It is filed as cell-based. To be noted: for IC50: normalized against control (virus in DMEM).

A word on the IC50: it is the concentration that inhibits the measured activity by half. A high value points to lower potency. For `O=C(O[C@@H]1Cc2c(O)cc(O)cc2O[C@@H]1c1cc(O)c(O)c(O)c1)c1cc(O)c(O)c(O)c1` [EGCG, epigallocatechin gallate], where the note is “FIG. 1, plaque reduction”, the “in vitro antiviral activity on vero cells infected with SARS-CoV-2” value is “strong in vitro antiviral activity”. Moreover, the IC50 by setting is: (dilution series 1) 42.65 µg/mL (≈ 93 µM); (dilution series 2) 32.89 µg/mL (≈ 71.8 µM); (dilution series 3) 36.09 µg/mL (≈ 78.7 µM).
